Test results from patent US6428997B1, “Aminopeptidase derived from Bacillus licheniformis and process for preparation of natural type proteins” (LG Chemical Ltd., priority 1997, dated 2002).

Legend:
aminopeptidase = assay: Effect of chemical materials affecting enzyme activity of aminopeptidase; type: biochemical, Bacillus licheniformis
Experimental: (§1) In order to examine chemical materials affecting enzyme activity of aminopeptidase, enzyme activities of aminopeptidase treated for 2 hours with dithiotreitol, iodoacetic acid, ortho-phenanthroline and EDTA as 1, 5 and 20 mMJ respectively were measured.

[1] = Moore, Endocrinology 1988; cited from earlier work
[2] = biological target: T1, aminopeptidase of Bacillus licheniformis ATCC 12759 (N-terminal sequence SEQ ID NO: 3) (Bacillus licheniformis, UniProt Q65DH7); assay: Effect of chemical materials on aminopeptidase activity (2 h treatment, leucine-p-nitroanilide substrate); type: biochemical; settings: treated 2 hours, 0 mM = 100, read-out: relative activity
T1 sequence (Q65DH7 43-449 limits assumed): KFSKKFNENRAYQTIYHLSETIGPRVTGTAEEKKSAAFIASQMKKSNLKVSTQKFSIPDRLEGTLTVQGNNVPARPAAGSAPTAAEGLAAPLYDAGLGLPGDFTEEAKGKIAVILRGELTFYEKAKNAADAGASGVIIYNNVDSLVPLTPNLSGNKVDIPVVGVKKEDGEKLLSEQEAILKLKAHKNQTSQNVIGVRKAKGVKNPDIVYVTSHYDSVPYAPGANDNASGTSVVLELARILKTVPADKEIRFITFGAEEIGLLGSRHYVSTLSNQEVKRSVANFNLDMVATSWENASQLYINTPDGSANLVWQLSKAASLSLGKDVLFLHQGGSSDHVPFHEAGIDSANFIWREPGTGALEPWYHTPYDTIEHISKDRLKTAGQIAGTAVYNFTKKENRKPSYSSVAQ
Experimental: Aminopeptidase activities of this invention were measured by the method of Pfleiderer (Pfleiderer, Meth. Enzymol., 19, 514-521, 1970). Precisely, 1 U of enzyme activity defines the enzyme quantity changing 1 absorbance at 405 nm which is measured by the process adding aminopeptidase in 1 ml solution of […] Tris-Cl (pH 8.0) and 2 mM leucine-p-nitroanilide (Sigma, USA), incubating at 37° C. for 1 min, then adding 100 μl of 70% acetic acid to stop the reaction. At that time leucine-p-nitroanilide was dissolved in dimethylsulfoxide (DMSO) to make 100 mM solution.
as §1

[3] = aminopeptidase treated for 2 hours with 1 mM chemical
[4] = aminopeptidase treated for 2 hours with 5 mM chemical
[5] = aminopeptidase treated for 2 hours with 20 mM chemical

In the case of O=C(O)CN(CCN(CC(=O)O)CC(=O)O)CC(=O)O [EDTA, ethylenediaminetetraacetic acid], the “effect on aminopeptidase activity (in words)” value (shortened to “effect”) (aminopeptidase) is reported as “inhibited partially”, the “relative activity (%)” value (aminopeptidase; [3]) is reported as 93.8% and the “relative activity (%)” value (aminopeptidase; [4]) is reported as 83.4%. The “relative activity (%)” value (aminopeptidase; [5]) was 66.3%.
In the case of O=C(O)CI [iodoacetic acid], the “effect” value (aminopeptidase) is reported as “inhibited”, the “relative activity (%)” value (aminopeptidase; [3]) is reported as 98.1% and the “relative activity (%)” value (aminopeptidase; [4]) is reported as 104.2%. The “relative activity (%)” value (aminopeptidase; [5]) was 0%.
In the case of “methionyl HGH: recombinant human growth hormone of 192 amino acids with Met-Phe-Pro-Thr sequence at the N-terminus”, the “biological activity compared with natural type HGH” value [1] is listed as “the same activity with that of natural type HGH”.
In the case of O[C@H](CS)[C@H](O)CS (racemic) [dithiotreitol, dithiothreitol], the “effect” value (aminopeptidase) is reported as “inhibited”, the “relative activity (%)” value (aminopeptidase; [3]) is reported as 0.8% and the “relative activity (%)” value (aminopeptidase; [4]) is reported as 0%. The “relative activity (%)” value (aminopeptidase; [5]) was 0%.
For c1cnc2c(c1)ccc1cccnc12 [ortho-penanthroline, ortho-phenanthroline], the “effect” value (aminopeptidase) was “inhibited”, the “relative activity (%)” value (aminopeptidase; [3]) was 91.9% and the “relative activity (%)” value (aminopeptidase; [4]) was 86.8%. For the same compound, the “relative activity (%)” value (aminopeptidase; [5]) was 4.7%, the activity at 1000 µM ([2]; pH 8, 1 mM chemical) was 91.9% and the activity at 5000 µM ([2]; pH 8, 5 mM chemical) was 86.8%. The activity at 20000 µM ([2]; pH 8, 20 mM chemical) was 4.7%.
